What all share (experiment): Bacterial susceptibility testing (MIC, broth microdilution)
Holding throughout (assay type): cell-based
For orientation: In broth dilution the organism is exposed to a series of concentrations in liquid medium.

One assay concerns P. aeruginosa ATCC27853. The settings on record: Pseudomonas aeruginosa. As for the experimental part:
(§1) Minimal inhibitory concentrations (MIC) were determined by the broth microdilution method in accordance with the Clinical and Laboratory Standards Institute (CLSI) guidelines. In brief, organism suspensions were adjusted to a final inoculum between 3×10^5 and 7×10^5 colony-forming units (CFU)/mL. Drug dilutions and inocula were made in sterile, cation adjusted Mueller-Hinton Broth (Beckton Dickinson). In wells, an inoculum volume of 100 μL was mixed to 2 μL of DMSO with 2-fold serial dilutions of drug. All inoculated microdilution trays were incubated in ambient air at 35° C. for 18-24 h. Following incubation, the lowest concentration of the drug that prevented visible growth (OD600 nm<0.05) was recorded as the MIC. Performance of the assay was monitored by the use of laboratory quality -control strains and compounds with defined MIC spectrum, in accordance with CLSI guidelines.

Another assay concerns E. coli ATCC25922. The following applies: Escherichia coli. On the procedure:
as §1

The subject of a further assay is K. pneumoniae ATCC13883. The following applies: Klebsiella pneumoniae. On the procedure: as §1
The next assay has as its system P. aeruginosa PAO1. The following applies: Pseudomonas aeruginosa. On the procedure: as §1
[1] abbreviates: ATCC27853, broth microdilution, cation adjusted Mueller-Hinton Broth, 35° C., 18-24 h, read-out: P. aeruginosa ATCC27853 MIC.
Where [2] appears, read: ATCC25922, broth microdilution, cation adjusted Mueller-Hinton Broth, 35° C., 18-24 h, read-out: E. coli ATCC25922 MIC.
Where [3] appears, read: ATCC13883, broth microdilution, cation adjusted Mueller-Hinton Broth, 35° C., 18-24 h, read-out: K. pneumoniae ATCC13883 MIC.
[4] abbreviates: PAO1, broth microdilution, cation adjusted Mueller-Hinton Broth, 35° C., 18-24 h, read-out: P. aeruginosa PAO1 MIC.

Values after ≈ are worked out from the molar mass of the structure shown. Where two headings read alike, the source gives them in different places. A value given as a limit tells only on which side of the number the result lay.

A word on the MIC: it is the lowest concentration found to suppress growth.

`C[C@H](O)c1nccn1[C@@H](C#Cc1ccc(-c2ccc(CN[C@@H]3COC[C@H]3O)cc2)cc1)CO` (racemic) [Compound 65]: the MIC in the assay on P. aeruginosa ATCC27853 (setting [1]) stood at 4 µg/mL (≈ 8.94 µM); in the assay with E. coli ATCC25922 (setting [2]), 2 µg/mL (≈ 4.47 µM); in the assay with K. pneumoniae ATCC13883 (setting [3]), 4 µg/mL (≈ 8.94 µM); in the assay on P. aeruginosa PAO1 (setting [4]), 2 µg/mL (≈ 4.47 µM).
As for `C[C@H](O)c1nccn1[C@@H](C#Cc1ccc(-c2ccc(NC[C@@H]3COC[C@H]3O)cc2)cc1)CO` (racemic) [Compound 69, (rac-trans)-4-(((4′-((S)-4-hydroxy-3-(2-((S)-1-hydroxyethyl)-1H-imidazol-1-yl)but-1-yn-1-yl)-[1,1′-biphenyl]-4-yl)amino)methyl)tetrahydrofuran-3-ol], the MIC stood at 2 µg/mL (≈ 4.47 µM) in the assay on P. aeruginosa ATCC27853 (setting [1]), 1 µg/mL (≈ 2.23 µM) in the assay with E. coli ATCC25922 (setting [2]), 2 µg/mL (≈ 4.47 µM) with K. pneumoniae ATCC13883 (setting [3]) and 1 µg/mL (≈ 2.23 µM) with P. aeruginosa PAO1 (setting [4]).
Consider `CC(N1CC(Oc2ccc(-c3ccc(C#C[C@@H](CO)n4ccnc4[C@H](C)O)cc3)cc2)C1)C(F)(F)F` (mixture of isomers) [Compound 97, (2S)-2-(2-((S)-1-hydroxyethyl)-1H-imidazol-1-yl)-4-(4′-((1-(1,1,1-trifluoropropan-2-yl)azetidin-3-yl)oxy)-[1,1′-biphenyl]-4-yl)but-3-yn-1-ol], for which the MIC in the assay with P. aeruginosa ATCC27853 (ATCC27853, read-out: P. aeruginosa ATCC27853 MIC) was determined as 32 µg/mL (≈ 64.1 µM); with E. coli ATCC25922 (ATCC25922, read-out: E. coli ATCC25922 MIC) it was 4 µg/mL (≈ 8.01 µM); in the assay with K. pneumoniae ATCC13883 (ATCC13883, read-out: K. pneumoniae ATCC13883 MIC) it was 8 µg/mL (≈ 16 µM); in the assay on P. aeruginosa PAO1 (PAO1, read-out: P. aeruginosa PAO1 MIC), 16 µg/mL (≈ 32 µM).
In the case of `CC1C(Oc2ccc(-c3ccc(C#C[C@@H](CO)n4ccnc4[C@H](C)O)cc3)cc2)CN1CC#N` (mixture of isomers) [Compound 99], the minimal inhibitory concentration (MIC) in the assay on P. aeruginosa ATCC27853 (setting [1]) came to 8 µg/mL (≈ 17.5 µM); with E. coli ATCC25922 (setting [2]), 1 µg/mL (≈ 2.19 µM); in the assay on K. pneumoniae ATCC13883 (setting [3]) it was 2 µg/mL (≈ 4.38 µM); in the assay with P. aeruginosa PAO1 (setting [4]), 4 µg/mL (≈ 8.76 µM).
The matching figures for `C[C@H](O)c1nccn1[C@@H](C#Cc1ccc(-c2ccc([C@H]3C[C@](N)(C#N)C3)cc2)cc1)CO` (racemic) [Compound 101, (rac-cis)-1-amino-3-(4′-((S)-4-hydroxy-3-(2-((S)-1-hydroxyethyl)-1H-imidazol-1-yl)but-1-yn-1-yl)-[1,1′-biphenyl]-4-yl)cyclobutane-1-carbonitrile]: 4 µg/mL (≈ 9.38 µM), 0.5 µg/mL (≈ 1.17 µM), 1 µg/mL (≈ 2.34 µM) and 1 µg/mL (≈ 2.34 µM).
For `CNC(=O)C(C)Oc1ccc(-c2ccc(C#C[C@@H](CO)n3ccnc3[C@H](C)O)cc2)cc1` (mixture of isomers) [Compound 102, 2-((4′-((S)-4-hydroxy-3-(2-((S)-1-hydroxyethyl)-1H-imidazol-1-yl)but-1-yn-1-yl)-[1,1′-biphenyl]-4-yl)oxy)-N-methylpropanamide] the same measures were 8 µg/mL (≈ 18.5 µM), 2 µg/mL (≈ 4.61 µM), 4 µg/mL (≈ 9.23 µM) and 4 µg/mL (≈ 9.23 µM).
Regarding `C[C@H](O)c1nccn1[C@@H](C#Cc1ccc(-c2ccc(OC3CCN(CC#N)C3)cc2)cc1)CO` (mixture of isomers) [Compound 104, 2-(3-((4′-((S)-4-hydroxy-3-(2-((S)-1-hydroxyethyl)-1H-imidazol-1-yl)but-1-yn-1-yl)-[1,1′-biphenyl]-4-yl)oxy)pyrrolidin-1-yl)acetonitrile], the MIC amounted to 2 µg/mL (≈ 4.38 µM) in the assay with P. aeruginosa ATCC27853 (setting [1]), 2 µg/mL (≈ 4.38 µM) in the assay with E. coli ATCC25922 (setting [2]), 4 µg/mL (≈ 8.76 µM) in the assay on K. pneumoniae ATCC13883 (setting [3]) and 2 µg/mL (≈ 4.38 µM) in the assay with P. aeruginosa PAO1 (setting [4]).
Regarding `C[C@H](O)c1nccn1[C@@H](C#Cc1ccc(-c2ccc(C3CCO3)cc2)cc1)CO` (mixture of isomers) [Compound 106, (2S)-2-(2-((S)-1-hydroxyethyl)-1H-imidazol-1-yl)-4-(4′-(oxetan-2-yl)-[1,1′-biphenyl]-4-yl)but-3-yn-1-ol], the MIC was determined as 4 µg/mL (≈ 10.3 µM) in the assay on P. aeruginosa ATCC27853 (setting [1]), 0.25 µg/mL (≈ 0.644 µM) in the assay on E. coli ATCC25922 (setting [2]), 0.5 µg/mL (≈ 1.29 µM) in the assay on K. pneumoniae ATCC13883 (setting [3]) and 2 µg/mL (≈ 5.15 µM) in the assay with P. aeruginosa PAO1 (setting [4]).
The matching figures for `CO[C@H]1C[C@H](c2ccc(-c3ccc(C#C[C@@H](CO)n4ccnc4[C@H](C)O)cc3)cc2)C1` (racemic) [Compound 117, (S)-2-(2-((S)-1-hydroxyethyl)-1H-imidazol-1-yl)-4-(4′-((rac-trans)-3-methoxycyclobutyl)-[1,1′-biphenyl]-4-yl)but-3-yn-1-ol]: 4 µg/mL (≈ 9.6 µM), 0.12 µg/mL (≈ 0.288 µM), 0.25 µg/mL (≈ 0.6 µM) and 2 µg/mL (≈ 4.8 µM).
The matching figures for `CO[C@H]1C[C@@H](c2ccc(-c3ccc(C#C[C@@H](CO)n4ccnc4[C@H](C)O)cc3)cc2)C1` (racemic) [Compound 118, (S)-2-(2-((S)-1-hydroxyethyl)-1H-imidazol-1-yl)-4-(4′-((rac-cis)-3-methoxycyclobutyl)-[1,1′-biphenyl]-4-yl)but-3-yn-1-ol]: 4 µg/mL (≈ 9.6 µM), 0.12 µg/mL (≈ 0.288 µM), 0.38 µg/mL (≈ 0.912 µM) and 2 µg/mL (≈ 4.8 µM).
The matching figures for `C[C@H](O)c1nccn1[C@@H](C#Cc1ccc(-c2ccc(O[C@H]3COC[C@]3(O)C(F)(F)F)cc2)cc1)CO` (racemic) [Compound 119, (rac-cis)-4-((4′-((S)-4-hydroxy-3-(2-((S)-1-hydroxyethyl)-1H-imidazol-1-yl)but-1-yn-1-yl)-[1,1′-biphenyl]-4-yl)oxy)-3-(trifluoromethyl)tetrahydrofuran-3-ol]: above 32 µg/mL, 4 µg/mL (≈ 7.96 µM), 8 µg/mL (≈ 15.9 µM) and 8 µg/mL (≈ 15.9 µM).
As for `C[C@H](O)c1nccn1[C@@H](C#Cc1ccc(-c2ccc(O[C@H]3C[C@H](NS(C)(=O)=O)C3)cc2)cc1)CO` (racemic) [Compound 120, N-((rac-trans)-3-((4′-((S)-4-hydroxy-3-(2-((S)-1-hydroxyethyl)-1H-imidazol-1-yl)but-1-yn-1-yl)-[1,1′-biphenyl]-4-yl)oxy)cyclobutyl)methane-sulfonamide], the minimal inhibitory concentration (MIC) in the assay with P. aeruginosa ATCC27853 (setting [1]) turned out to be 4 µg/mL (≈ 8.07 µM); with E. coli ATCC25922 (setting [2]) it was 1 µg/mL (≈ 2.02 µM); with K. pneumoniae ATCC13883 (setting [3]) it was 2 µg/mL (≈ 4.04 µM); in the assay with P. aeruginosa PAO1 (setting [4]), 2 µg/mL (≈ 4.04 µM).
For the molecule `C[C@H](O)c1nccn1[C@@H](C#Cc1ccc(-c2ccc(O[C@H]3C[C@H](NCC#N)C3)cc2)cc1)CO` (racemic) [Compound 121, 2-(((rac-trans)-3-((4′-((S)-4-hydroxy-3-(2-((S)-1-hydroxyethyl)-1H-imidazol-1-yl)but-1-yn-1-yl)-[1,1′-biphenyl]-4-yl)oxy)cyclobutyl)amino) acetonitrile], the MIC with P. aeruginosa ATCC27853 (setting [1]) came out at 4 µg/mL (≈ 8.76 µM); with E. coli ATCC25922 (setting [2]), 0.5 µg/mL (≈ 1.1 µM); with K. pneumoniae ATCC13883 (setting [3]), 1 µg/mL (≈ 2.19 µM); in the assay on P. aeruginosa PAO1 (setting [4]), 1 µg/mL (≈ 2.19 µM).
As to `CNC(=O)[C@H]1C[C@H](Oc2ccc(-c3ccc(C#C[C@@H](CO)n4ccnc4[C@H](C)O)cc3)cc2)C1` (racemic) [Compound 122, (rac-trans)-3-((4′-((S)-4-hydroxy-3-(2-((S)-1-hydroxyethyl)-1H-imidazol-1-yl)but-1-yn-1-yl)-[1,1′-biphenyl]-4-yl)oxy)-N-methylcyclobutane-1-carboxamide], the minimal inhibitory concentration (MIC) was 2 µg/mL (≈ 4.35 µM) in the assay with P. aeruginosa ATCC27853 (setting [1]), 0.5 µg/mL (≈ 1.09 µM) in the assay with E. coli ATCC25922 (setting [2]), 1 µg/mL (≈ 2.18 µM) with K. pneumoniae ATCC13883 (setting [3]) and 2 µg/mL (≈ 4.35 µM) in the assay on P. aeruginosa PAO1 (setting [4]).
Turning to `C[C@H](O)c1nccn1[C@@H](C#Cc1ccc(-c2ccc(O[C@@H]3COC[C@H]3OC(F)(F)F)cc2)cc1)CO` (racemic) [Compound 124, (S)-2-(2-((S)-1-hydroxyethyl)-1H-imidazol-1-yl)-4-(4′-(((rac-trans)-4-(trifluoromethoxy)-tetrahydrofuran-3-yl)oxy)-[1,1′-biphenyl]-4-yl)but-3-yn-1-ol], the MIC in the assay on P. aeruginosa ATCC27853 (setting [1]) was above 32 µg/mL; in the assay on E. coli ATCC25922 (setting [2]), 2 µg/mL (≈ 3.98 µM); in the assay with K. pneumoniae ATCC13883 (setting [3]), 4 µg/mL (≈ 7.96 µM); with P. aeruginosa PAO1 (setting [4]), 8 µg/mL (≈ 15.9 µM).
Regarding `CC(=O)N[C@H]1C[C@H](c2ccc(-c3ccc(C#C[C@@H](CO)n4ccnc4[C@H](C)O)cc3)cc2)C1` (racemic) [Compound 127, N-((rac-trans)-3-(4′-((S)-4-hydroxy-3-(2-((S)-1-hydroxyethyl)-1H-imidazol-1-yl)but-1-yn-1-yl)-[1,1′-biphenyl]-4-yl)cyclobutyl)acetamide], the MIC in the assay on P. aeruginosa ATCC27853 (setting [1]) turned out to be 1 µg/mL (≈ 2.25 µM); in the assay with E. coli ATCC25922 (setting [2]) it was 0.25 µg/mL (≈ 0.564 µM); with K. pneumoniae ATCC13883 (setting [3]) it was 1 µg/mL (≈ 2.25 µM); in the assay with P. aeruginosa PAO1 (setting [4]) it was 1 µg/mL (≈ 2.25 µM).
On to `C[C@H](O)c1nccn1[C@@H](C#Cc1ccc(-c2ccc(O[C@H]3C[C@@H](C#N)C3)cc2)cc1)CO` (racemic) [Compound 129, (rac-cis)-3-((4′-((S)-4-hydroxy-3-(2-((S)-1-hydroxyethyl)-1H-imidazol-1-yl)but-1-yn-1-yl)-[1,1′-biphenyl]-4-yl)oxy)cyclobutane-1-carbonitrile], for which the MIC in the assay with P. aeruginosa ATCC27853 (setting [1]) worked out at 4 µg/mL (≈ 9.36 µM); in the assay on E. coli ATCC25922 (setting [2]), 0.5 µg/mL (≈ 1.17 µM); in the assay on K. pneumoniae ATCC13883 (setting [3]) it was 1 µg/mL (≈ 2.34 µM); with P. aeruginosa PAO1 (setting [4]), 2 µg/mL (≈ 4.68 µM).
The matching figures for `C[C@H](O)c1nccn1[C@@H](C#Cc1ccc(-c2ccc(O[C@H]3C[C@H](C#N)C3)cc2)cc1)CO` (racemic) [Compound 130, (rac-trans)-3-((4′-((S)-4-hydroxy-3-(2-((S)-1-hydroxyethyl)-1H-imidazol-1-yl)but-1-yn-1-yl)-[1,1′-biphenyl]-4-yl)oxy) cyclobutane-1-carbonitrile]: above 32 µg/mL, 0.25 µg/mL (≈ 0.585 µM), 1 µg/mL (≈ 2.34 µM) and 2 µg/mL (≈ 4.68 µM).
